# Assay results published in patent US20090029949A1, “GPCR Ligands Identified by Computational Modeling” (priority 2006, published 2009).
# What was measured:
# S1P1 mutant L6.41G = target: T1, S1P1 mutant L6.41G (Homo sapiens, UniProt P21453, L262G); test: [35S]GTPγS binding, S1P1 L6.41G; type: biochemical; settings: S1P-induced, S1P1 L6.41G in RH7777 cells; mutant not detected at the cell surface
# T1 construct: expressed in transfected cells; host or cells: RH7777
# Method: (§1) RH7777 and HEK-293 cells (ATCC, Manassas, Va.) were maintained in Dulbecco's modified minimal essential medium (DMEM) containing 10% fetal bovine serum (Hyclone, Logan, Utah). Cells (2×10^6) were transfected with 2 μg of plasmid DNA with Effectene (Qiagen, Valencia, Calif.) according to the manufacturer's instructions, for 24 h. Before ligand binding and receptor activation assays, the cells were washed twice with serum-free DMEM and serum-starved for at least 6 h.
# (§2) S1P1 Receptor Activation Assays Receptor functional assays were performed in transiently transfected RH7777 cells by measuring S1P-activated [^35S]GTPγS binding as previously described (28).
# S1P1 mutant L3.36G = target: T2, S1P1 mutant L3.36G (Homo sapiens, UniProt P21453, L128G); test: [35S]GTPγS binding, S1P1 L3.36G; type: biochemical; settings: S1P-induced, S1P1 L3.36G in RH7777 cells
# T2 construct: expressed in transfected cells; host or cells: RH7777 (transient, pcDNA3.1)
# T2 sequence (P21453 whole entry L128G): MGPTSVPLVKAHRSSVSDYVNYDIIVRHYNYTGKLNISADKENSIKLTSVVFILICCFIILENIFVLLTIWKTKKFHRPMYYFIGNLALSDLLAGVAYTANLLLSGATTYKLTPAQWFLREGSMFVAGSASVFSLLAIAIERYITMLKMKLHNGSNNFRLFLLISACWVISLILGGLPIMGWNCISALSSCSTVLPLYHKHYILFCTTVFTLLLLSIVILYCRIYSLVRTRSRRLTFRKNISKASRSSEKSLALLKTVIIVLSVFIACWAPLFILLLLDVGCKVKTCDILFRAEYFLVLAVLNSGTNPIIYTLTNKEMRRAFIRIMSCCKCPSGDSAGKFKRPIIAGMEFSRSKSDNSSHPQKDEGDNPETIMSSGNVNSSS
# Method: as §1, §2
# S1P1 mutant V6.40A = S1P1 mutant V6.40A (Homo sapiens, UniProt P21453, V261A); test: [32P]S1P competition binding, HEK-293 cells, V6.40A; design: expressed in transfected cells; settings: S1P1 V6.40A
# Sequence of S1P1 mutant V6.40A (P21453 whole entry V261A): as the sequence (P21453 whole entry L128G) above, with G128L, V261A counted along it
# Method: For the competition assays, HEK-293 cells were used. Briefly, 4×10^5 cells were plated in 24-well dishes and allowed to adhere overnight. The cells were then transfected with 0.4 μg of the cDNA using Lipofectamine 2000 (Invitrogen) and the transfection proceeded for 48 h. After washing the cells twice with ice-cold binding buffer (20 mM Tris-HCl, pH 7.4 and 150 mM NaCl), 0.1 nM [^32P]S1P and competing concentrations of cold S1P (1 nM-10 μM), resuspended in binding buffer+4% BSA, were applied to the cells and incubated on ice for 30 min. After washing the cells twice with ice-cold binding buffer+0.4% BSA, the cells were lysed with 0.5% SDS and equilibrated in scintillation fluid. The samples were measured in triplicate.
# S1P1 mutant W6.48A [1] = target: T3, S1P1 mutant W6.48A (Homo sapiens, UniProt P21453, W269A); test: [35S]GTPγS binding, S1P1 W6.48A; type: biochemical; settings: S1P-induced, S1P1 W6.48A in RH7777 cells
# T3 construct: expressed in transfected cells
# T3 sequence (P21453 whole entry W269A): as the sequence (P21453 whole entry L128G) above, with G128L, W269A counted along it
# Method: as §1, §2
# S1P1 mutant F5.48G = target: T4, S1P1 mutant F5.48G (Homo sapiens, UniProt P21453, F210G); test: [35S]GTPγS binding, S1P1 F5.48G; type: biochemical; settings: S1P-induced, S1P1 F5.48G in RH7777 cells
# T4 construct: expressed in transfected cells
# T4 sequence (P21453 whole entry F210G): as the sequence (P21453 whole entry L128G) above, with G128L, F210G counted along it
# Method: as §1, §2
# S1P1 mutant M3.32K = target: T5, S1P1 mutant M3.32K (Homo sapiens, UniProt P21453, M124K); test: [35S]GTPγS binding, S1P1 M3.32K; type: biochemical; settings: S1P-induced, S1P1 M3.32K in RH7777 cells
# T5 construct: expressed in transfected cells; host or cells: RH7777
# T5 sequence (P21453 whole entry M124K): as the sequence (P21453 whole entry L128G) above, with M124K, G128L counted along it
# Method: as §1, §2
# WT S1P1 = WT S1P1 (Homo sapiens, UniProt P21453); test: Ligand-induced [35S]GTPγS binding, WT S1P1; type: biochemical; design: expressed in transfected cells; host or cells: RH7777 (transient, pcDNA3.1); settings: S1P-induced, WT-S1P1 in RH7777 cells
# Sequence of WT S1P1 (P21453 whole entry): as the sequence (P21453 whole entry L128G) above, with G128L counted along it
# Method: as §1, §2
# [2] = Ligand-induced [35S]GTPγS binding, empty vector; type: biochemical; settings: S1P-induced, empty vector in RH7777 cells
# Method: as §1, §2
# S1P1 mutant T5.45G = target: T6, S1P1 mutant T5.45G (Homo sapiens, UniProt P21453, T207G); test: [35S]GTPγS binding, S1P1 T5.45G; type: biochemical; settings: S1P-induced, S1P1 T5.45G in RH7777 cells
# T6 construct: expressed in transfected cells; host or cells: RH7777 (transient, pcDNA3.1)
# T6 sequence (P21453 whole entry T207G): as the sequence (P21453 whole entry L128G) above, with G128L, T207G counted along it
# Method: as §1, §2
# S1P1 mutant W6.48A [3] = target: T3, S1P1 mutant W6.48A; test: [32P]S1P radioligand binding, RH7777 cells, W6.48A; settings: radioligand 50 nM, S1P1 W6.48A
# Method: as §1
# (§3) The S1P binding assays were done essentially as previously described (28). Transfected RH7777 cells (5×10^5) were incubated at 4° C. in 20 mM Tris-HCl (pH 7.5) binding buffer containing 100 mM NaCl, 15 mM NaF, protease inhibitor cocktail (Sigma-Aldrich), and 0.2 mg/ml essentially fatty-acid free BSA with 1 nM [^32P]S1P in 50 nM S1P for 40 min. Cells were centrifuged and washed twice in binding buffer. The final pellet was resuspended in 2:1 CHCl3/MeOH and the suspension was equilibrated in scintillation fluid overnight. Cell-bound radioactivity was measured by liquid scintillation counting using a Beckman LS5000 TA counter (Beckman Coulter, Irvine, Calif.). Specific binding was defined as the difference between total binding and non-specific binding (in the presence of 2-5 μM cold S1P). Standard errors were computed on the basis of triplicate samples from two simultaneous transfections.
# S1P1 mutant T5.45S = target: T7, S1P1 mutant T5.45S (Homo sapiens, UniProt P21453, T207S); test: [35S]GTPγS binding, S1P1 T5.45S; type: biochemical; settings: S1P-induced, S1P1 T5.45S in RH7777 cells
# T7 construct: expressed in transfected cells; host or cells: RH7777 (transient, pcDNA3.1)
# T7 sequence (P21453 whole entry T207S): as the sequence (P21453 whole entry L128G) above, with G128L, T207S counted along it
# Method: as §1, §2
# S1P1 mutant T5.49G = target: T8, S1P1 mutant T5.49G (Homo sapiens, UniProt P21453, T211G); test: [35S]GTPγS binding, S1P1 T5.49G; type: biochemical; settings: S1P-induced, S1P1 T5.49G in RH7777 cells
# T8 construct: expressed in transfected cells; host or cells: RH7777 (transient, pcDNA3.1)
# T8 sequence (P21453 whole entry T211G): as the sequence (P21453 whole entry L128G) above, with G128L, T211G counted along it
# Method: as §1, §2
# S1P1 mutant L3.36E = S1P1 mutant L3.36E (Homo sapiens, UniProt P21453, L128E); test: [32P]S1P radioligand binding, RH7777 cells, L3.36E; design: expressed in transfected cells; host or cells: RH7777 (transient, pcDNA3.1); settings: radioligand 50 nM, S1P1 L3.36E
# Sequence of S1P1 mutant L3.36E (P21453 whole entry L128E): as the sequence (P21453 whole entry L128G) above, with G128E counted along it
# Method: as §1, §3
# S1P1 mutant V5.47L = target: T9, S1P1 mutant V5.47L (Homo sapiens, UniProt P21453, V209L); test: [35S]GTPγS binding, S1P1 V5.47L; type: biochemical; settings: S1P-induced, S1P1 V5.47L in RH7777 cells
# T9 construct: expressed in transfected cells; host or cells: RH7777
# T9 sequence (P21453 whole entry V209L): as the sequence (P21453 whole entry L128G) above, with G128L, V209L counted along it
# Method: as §1, §2
# S1P1 mutant M3.32G = target: T10, S1P1 mutant M3.32G (Homo sapiens, UniProt P21453, M124G); test: [35S]GTPγS binding, S1P1 M3.32G; type: biochemical; settings: S1P-induced, S1P1 M3.32G in RH7777 cells
# T10 construct: expressed in transfected cells; host or cells: RH7777
# T10 sequence (P21453 whole entry M124G): as the sequence (P21453 whole entry L128G) above, with M124G, G128L counted along it
# Method: as §1, §2
# T1 sequence (P21453 whole entry L262G): as the sequence (P21453 whole entry L128G) above, with G128L, L262G counted along it
structure (smiles),measurement,setting,value
"CCCCCCCCCCCCC/C=C/[C@@H](O)[C@@H](N)COP(=O)(O)O [S1P, Sphingosine 1-phosphate]",% WT Emax + s.d.,S1P1 mutant L6.41G,∞
same,EC50 + s.d.,S1P1 mutant L6.41G,∞
same,EC50,S1P1 mutant L3.36G,23 ± 8 nM
same,Emax,S1P1 mutant L3.36G; read-out: % WT Emax + s.d.,75%
same,Bmax,S1P1 mutant V6.40A,2040 fmol
same,Kd,"S1P1 mutant V6.40A; competition with cold S1P, read-out: KD + s.d.",27.6 nM
same,EC50,S1P1 mutant W6.48A [1],13 ± 4.2 nM
same,Emax,S1P1 mutant W6.48A [1]; read-out: % WT Emax + s.d.,34 ± 1.5%
same,% WT Emax + s.d.,S1P1 mutant F5.48G,∞
same,EC50 + s.d.,S1P1 mutant F5.48G,∞
same,% WT Emax + s.d.,S1P1 mutant M3.32K,∞
same,EC50 + s.d.,S1P1 mutant M3.32K,∞
same,% WT Emax + s.d.,WT S1P1,100 + 9.13 % WT
same,EC50,WT S1P1,1.4 ± 0.7 nM
same,% WT Emax + s.d.,[2],∞
same,EC50 + s.d.,[2],∞
same,EC50,S1P1 mutant T5.45G,30.9 nM
same,Emax,S1P1 mutant T5.45G; read-out: % WT Emax + s.d.,96%
same,[32P]S1P binding relative to WT,S1P1 mutant W6.48A [3],> 50 % of the WT
same,EC50,S1P1 mutant T5.45S,7.9 nM
same,Emax,S1P1 mutant T5.45S; read-out: % WT Emax + s.d.,28%
same,EC50,S1P1 mutant T5.49G,5.4 nM
same,Emax,S1P1 mutant T5.49G; read-out: % WT Emax + s.d.,107%
same,[32P]S1P binding relative to WT,S1P1 mutant L3.36E,> 50 % of the WT
same,% WT Emax + s.d.,S1P1 mutant V5.47L,∞
same,EC50 + s.d.,S1P1 mutant V5.47L,∞
same,EC50,S1P1 mutant M3.32G,35 ± 5 nM
same,Emax,S1P1 mutant M3.32G; read-out: % WT Emax + s.d.,77%
